Data reported in patent US12595252B2, “Inhibitors of SARM1” (DISARM THERAPEUTICS, INC., priority 2019, dated 2026).
Read-outs that look alike come from different tables or passages of the source.

Target: T1, SARM1 (Homo sapiens, UniProt Q6SZW1)
T1 construct: made in house; host or cells: NRK1-HEK293T cells, transiently transfected; clarified lysate used unpurified
T1 sequence (Q6SZW1 with tags, fused parts or gaps): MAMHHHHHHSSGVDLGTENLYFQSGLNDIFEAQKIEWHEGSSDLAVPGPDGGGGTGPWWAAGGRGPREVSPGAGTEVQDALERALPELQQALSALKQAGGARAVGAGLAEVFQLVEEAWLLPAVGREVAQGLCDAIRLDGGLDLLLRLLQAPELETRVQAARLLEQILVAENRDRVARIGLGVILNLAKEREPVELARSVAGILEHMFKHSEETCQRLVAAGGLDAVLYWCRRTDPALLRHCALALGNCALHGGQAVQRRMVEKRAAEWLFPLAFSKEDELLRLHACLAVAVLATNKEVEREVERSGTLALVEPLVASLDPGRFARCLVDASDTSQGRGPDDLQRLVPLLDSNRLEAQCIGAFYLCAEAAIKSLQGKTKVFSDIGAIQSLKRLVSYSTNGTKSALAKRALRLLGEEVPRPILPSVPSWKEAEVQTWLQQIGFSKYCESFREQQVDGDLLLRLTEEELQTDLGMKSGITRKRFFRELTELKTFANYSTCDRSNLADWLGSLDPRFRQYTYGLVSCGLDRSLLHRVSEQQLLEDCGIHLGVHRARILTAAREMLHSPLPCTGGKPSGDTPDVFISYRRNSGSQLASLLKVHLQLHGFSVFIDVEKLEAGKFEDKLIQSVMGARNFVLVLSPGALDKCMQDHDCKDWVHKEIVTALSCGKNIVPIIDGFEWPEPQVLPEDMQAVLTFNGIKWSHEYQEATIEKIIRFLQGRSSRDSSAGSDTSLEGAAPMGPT
Assay: ARM-SAM-TIR SARM1 IC50 assay (NADase activity, NAD+ cleavage)
Type: biochemical
Description: This Example describes an assay of ARM-SAM-TIR NADase activity and use of this assay to measure the efficacy of compounds of Formula I to block SARM1 mediated NAD+ cleavage. This assay is optimized in such a way as to characterize the efficacy of the compounds in Formula I to inhibit SARM1 activity and to calculate an IC50 value for each compound. This assay makes use of full length SARM1, which encompasses the ARM, SAM and TIR domains.
NRK1-HEK293T cells were seeded onto 150 cm^2 plates at 20×10^6 cells per plate. The next day, the cells were transfected with 15 μg ARM-SAM-TIR expression plasmid, SEQ ID NO: 1.
The cultures were supplemented with 1 mM NR at time of transfection to minimize toxicity from ARM-SAM-TIR overexpression. Forty-eight hours after transfection, cells were harvested, pelleted by centrifugation at 1,000 rpm (Sorvall ST 16R centrifuge, Thermo Fisher), and washed once with cold PBS (0.01 M phosphate buffered saline NaCl 0.138 M; KCl 0.0027 M; pH 7.4). The cells were resuspended in PBS with protease inhibitors (cOmplete™ protease inhibitor cocktail, Roche product #11873580001) and cell lysates were prepared by sonication (Branson Sonifer 450, output=3, 20 episodes of stroke). The lysates were centrifuged (12,000×g for 10 min at 4° C.) to remove cell debris and the supernatants (containing ARM-SAM-TIR protein) were stored at −80° C. for later use in the in vitro ARM-SAM-TIR NADase assay (see below). Protein concentration was determined by the Bicinchoninic (BCA) method and used to normalize lysate concentrations.
The enzymatic assay was performed in a 384-well polypropylene plate in Dulbecco's PBS buffer in a final assay volume of 20 μL. ARM-SAM-TIR lysate with a final concentration of 5 μg/mL was pre-incubated with the respective compound at 1% DMSO final assay concentration over 2 h at room temperature. The reaction was initiated by addition of 5 μM final assay concentration of NAD+ as substrate. After a 2 hr room temperature incubation, the reaction was terminated with 40 μL of stop solution of 7.5% trichloroacetic acid in acetonitrile. The NAD+ and ADPR concentrations were analyzed by a RapidFire High Throughput Mass Spectrometry System (Agilent Technologies, Santa Clara, Calif.) using an API4000 triple quadrupole mass spectrometer (AB Sciex Framingham, Mass.).

[1] = ARM-SAM-TIR lysate 5 μg/mL from NRK1-HEK293T cells, 2 h pre-incubation, 5 μM NAD+, 2 hr room temperature, NAD+ and ADPR by RapidFire MS, read-out: SARM1 IC50

| SMILES | IC50 [1] [µM] | IC50 [µM] |
| --- | --- | --- |
| CN(C)Cc1ccc(N2CCN(c3cncc(OCC4CCCC4)n3)CC2)nc1 [Example 2] | > 30 | – |
| CCOc1cncc(NCc2ccc(N3CCN(CC)CC3)nc2)n1 [Example 3] | 5 to 15 | – |
| CCOc1cncc(NCc2ccc(N3CCN(CC)CC3)cc2)n1 [Example 7] | 5 to 15 | – |
| CCN1CCN(c2ccc(CNc3cncc(OC)n3)cn2)CC1 [Example 8] | 5 to 15 | – |
| CCOc1cncc(NCc2ccc(C)nc2)n1 [Example 9] | – | 5 to 15 |
| CCOc1cncc(NCc2ccccc2)n1 [Example 10] | 15 to 30 | – |
| CCCCCOc1cncc(NCc2cccnc2)n1 [Example 15] | > 30 | – |
| CN(C)c1cncc(NCc2cccnc2)n1 [Example 16] | 15 to 30 | – |
| COc1cncc(NS(=O)(=O)c2cccnc2)n1 [Example 17] | > 30 | – |
| COc1cncc(NCc2cn[nH]c2)n1 [Example 20] | 5 to 15 | – |
| COc1cncc(NCc2cncnc2)n1 [Example 22] | – | 5 to 15 |
| CCNc1cncc(NCc2cccnc2)n1 [Example 25] | 15 to 30 | – |
| c1cncc(CNc2cncc(-n3cccn3)n2)c1 [Example 28] | 5 to 15 | – |
| CCN(C)c1cncc(NCc2cccnc2)n1 [Example 30] | > 30 | – |
| COc1cncc(NC(C)c2ccccc2)n1 (stereo not shown) [Example 32] | 15 to 30 | – |
| COc1cncc(NCCCc2ccccc2)n1 [Example 33] | 5 to 15 | – |
| COc1cncc(NCc2cccnc2)c1C [Example 34] | > 30 | – |
| COc1cncc(NCc2cccc(F)c2)n1 [Example 39] | 5 to 15 | – |
| COc1cncc(NCC2CCOCC2)n1 [Example 41] | > 30 | – |
| COc1cncc(NCc2ccn(C)c2)n1 [Example 42] | 5 to 15 | – |
| COc1cncc(NCc2ccc(Cl)nc2)n1 [Example 44] | – | 5 to 15 |
| COc1cncc(NCC(O)c2cccc(C(F)(F)F)c2)n1 (stereo not shown) [Example 45] | 5 to 15 | – |
| COc1cncc(NC(=O)c2ccc3ccc(Cl)cc3n2)n1 [Example 46] | > 30 | – |
| COc1cncc(NCc2ccc(NC(C)=O)cc2)n1 [Example 47] | < 5 | – |
| COc1cncc(NCc2cnc3c(c2)ncn3C)n1 [Example 48] | 15 to 30 | – |
| COc1cncc(NCc2nccn2C)n1 [Example 51] | > 30 | – |
| COc1cncc(NCc2cn(C)cn2)n1 [Example 55] | 15 to 30 | – |
| COc1cncc(NCc2cc(C)no2)n1 [Example 56] | 5 to 15 | – |

| SMILES | IC50 [1] [µM] | IC50 [µM] |
| --- | --- | --- |
| COc1cncc(NCc2ccoc2)n1 [Example 58] | 5 to 15 | – |
| COc1cncc(NCc2cnc[nH]2)n1 [Example 61] | < 5 | – |
| COc1cncc(NCc2ccc(S(N)(=O)=O)cc2)n1 [Example 63] | < 5 | – |
| COc1cncc(NCc2ccc(C(N)=O)cc2)n1 [Example 64] | 5 to 15 | – |
| COc1cncc(NCc2cccc(C(N)=O)c2)n1 [Example 65] | 5 to 15 | – |
| COc1cncc(NCc2cc[nH]c(=O)c2)n1 [Example 66] | 5 to 15 | – |
| COc1cncc(NCc2cnco2)n1 [Example 68] | 5 to 15 | – |
| COc1cncc(NCc2cnc(C)s2)n1 [Example 70] | 5 to 15 | – |
| Brc1cncc(CCc2ccccc2)n1 [Example 72] | > 30 | – |
| COc1cncc(NCc2cnn(-c3ccccc3)c2)n1 [Example 73] | 5 to 15 | – |
| COc1cncc(NCc2ccc(C(=O)O)cc2)n1 [Example 76] | > 30 | – |
| COc1cncc(NCc2ccc(N3CCOCC3)nc2)n1 [Example 77] | 5 to 15 | – |
| COc1cncc(NCc2ccc(N3CCC(O)CC3)nc2)n1 [Example 80] | 5 to 15 | – |
| COc1cncc(NCc2ccc(N3CCNCC3)nc2)n1 [Example 81] | – | 5 to 15 |
| COc1cncc(NCc2ccc(N3CCCCC3)nc2)n1 [Example 84] | 5 to 15 | – |
| COc1cncc(NCc2ccccc2F)n1 [Example 85] | 5 to 15 | – |
| COc1cc(NCc2cccnc2)cnn1 [Example 95] | > 30 | – |
| COc1cncc(NCc2ccc(Br)cc2)n1 [Example 101] | < 5 | – |
| COc1cncc(NCc2cnn(CCN(C)C)c2)n1 [Example 104] | 5 to 15 | – |
| COc1cncc(NCc2cnn(C3CCNCC3)c2)n1 [Example 105] | < 5 | – |
| COc1cc(NCc2cccnc2)[nH]c(=O)c1 [Example 108] | > 30 | – |
| COc1cncc(NC(=O)c2cccnc2)c1 [Example 111] | > 30 | – |
| COc1cncc(NCc2cnc(N3CCNCC3C)nc2)n1 (stereo not shown) [Example 112] | 5 to 15 | – |
| COc1cncc(NCc2ccc(NCCN(C)C)nc2)n1 [Example 113] | 5 to 15 | – |
| COc1cncc(NCc2ccc(N3CCNC(=O)C3)nc2)n1 [Example 114] | 5 to 15 | – |
| Cn1cc(CNc2cncc(OCc3ccccc3)n2)cn1 [Example 115] | > 30 | – |
| Cn1cc(CNc2cncc(OCC(F)F)n2)cn1 [Example 116] | 15 to 30 | – |

Second part, led by results:

| IC50 [1] [µM] | SMILES | IC50 [µM] |
| --- | --- | --- |
| 5 to 15 | COc1cncc(NCc2cccnc2)n1 [Example 12] | – |
| > 30 | CC(C)Oc1cncc(NCc2cccnc2)n1 [Example 13] | – |
| 5 to 15 | Oc1cncc(NCc2cccnc2)c1 [Example 14] | – |
| 15 to 30 | COc1cncc(NCc2cnn(C)c2)n1 [Example 21] | – |
| 5 to 15 | COc1cncc(NC(=O)c2ccc3ccccc3n2)n1 [Example 23] | – |
| > 30 | COc1cncc(C(=O)NCc2cccnc2)n1 [Example 24] | – |
| 5 to 15 | COc1cncc(NCc2cnc3ccccc3c2)n1 [Example 26] | – |
| 5 to 15 | COc1cncc(NCc2cncc3ccccc23)n1 [Example 27] | – |
| 15 to 30 | COc1cncc(NC(C)c2cccnc2)n1 (stereo not shown) [Example 31] | – |
| 5 to 15 | COc1nc(NCc2cccnc2)cnc1C [Example 35] | – |
| 5 to 15 | COc1cccc(CNc2cncc(OC)n2)c1 [Example 37] | – |
| 5 to 15 | COc1ccc(CNc2cncc(OC)n2)cc1 [Example 38] | – |
| 15 to 30 | COc1ncc(NCc2cccnc2)nc1OC [Example 43] | – |
| 15 to 30 | COc1cncc(NCC2CCOC2)n1 (stereo not shown) [Example 50] | – |
| 5 to 15 | COc1cncc(NCc2ccn(C)n2)n1 [Example 54] | – |
| 15 to 30 | COc1cncc(NCc2cccn2C)n1 [Example 59] | – |
| 5 to 15 | COC(=O)c1ccc(CNc2cncc(OC)n2)cc1 [Example 67] | – |
| > 30 | Cn1cc(CNc2cncc(C#N)n2)cn1 [Example 75] | – |
| 5 to 15 | COc1cncc(NCc2ccc(F)cc2)n1 [Example 86] | – |
| 15 to 30 | COc1cncc(NCc2cnn3cccnc23)n1 [Example 89] | – |
| 15 to 30 | COc1cncc(NCc2cnn3ccccc23)n1 [Example 90] | – |
| 15 to 30 | COc1cncc(NCc2ccc(C(F)(F)F)nc2)n1 [Example 91] | – |
| 5 to 15 | COc1cncc(NCc2cnn(C(C)C)c2)n1 [Example 92] | – |
| 5 to 15 | COCCn1cc(CNc2cncc(OC)n2)cn1 [Example 93] | – |
| 15 to 30 | COc1cnnc(NCc2cccnc2)c1 [Example 94] | – |
| 5 to 15 | COc1cncc(NCc2ccc(Br)c(C)c2)n1 [Example 100] | – |
| 5 to 15 | COc1cncc(NCc2cnn(C3CCCCC3)c2)n1 [Example 106] | – |
| 5 to 15 | COc1cncc(NCc2cnn(C3CCN(S(C)(=O)=O)CC3)c2)n1 [Example 107] | – |
| 5 to 15 | COc1cncc(NCc2cccc(Br)c2)n1 [Example 109] | – |
| > 30 | COc1cncc(NC(=O)c2ccccc2)c1 [Example 110] | – |
